# Results reported in patent US20260285857A1, “BICYCLIC AND HETEROCYCLIC AMIDE COMPOUNDS” (priority 2024, published 2026).
# System: immunoglobulin light chain protein WIL-FL T46L
# Assay: Differential scanning fluorimetry (thermal shift) assay
# Type: binding
# Settings: Table A; temperature shift [Tm]compound-[Tm]vehicle; recombinant WIL-FL T46L
row,SMILES,DSF
1,Cc1cc(N2CCC(C)(c3cccnc3)C2)cn2nc(C(=O)N3CC[C@@]4(CCN(c5cccc(C(=O)O)n5)C4)C3)nc12 (stereo partly drawn) [Compound 427],*** (>1-1.5° C.=***)
2,"Cc1cc(N2CC[C@](C)(c3ccccc3)C2)cn2nc(C34CC(CO3)C4CNc3cccc(C(=O)O)n3)nc12 (stereo partly drawn) [Compound 8, 6-[[1-[8-methyl-6-[(3R)-3-methyl-3-phenyl-pyrrolidin-1-yl]-[1,2,4]triazolo[1,5-a]pyridin-2-yl]-2-oxabicyclo[2.1.1]hexan-5-yl]methylamino]pyridine-2-carboxylic acid]",***** (>2.5° C.=*****)
3,Cc1cc(N2CC[C@](C)(c3ccccc3)C2)cn2nc(C34CC(CO3)C4N3CC4(CC4)NC3=O)nc12 (stereo partly drawn) [Compound 78],***** (>2.5° C.=*****)
4,Cc1cc(N2CC[C@](C)(c3ccccc3)C2)cn2nc(C(=O)N[C@H]3C[C@](C)(O)C3)nc12 [Compound 167],***** (>2.5° C.=*****)
5,Cc1cc(OC[C@H](C)c2ccccc2)cn2nc(C34CC(CO3)C4C(N)=O)nc12 (stereo partly drawn) [Compound 437],*** (>1-1.5° C.=***)
6,C[C@]1(c2ccccc2)CCN(c2cc(CO)c3nc(C(=O)N4CCC5(CCN(c6cccc(C(=O)O)n6)C5)C4)nn3c2)C1 (stereo partly drawn) [Compound 343],***** (>2.5° C.=*****)
7,Cc1cc(N2CC[C@](C)(c3ccccc3)C2)cn2nc(C(=O)NC34COC(C(=O)O)(C3)C4)nc12 [Compound 172],***** (>2.5° C.=*****)
8,Cc1cc(N2CCC(C)(c3ccccc3F)C2)cn2nc(C(=O)N3CC[C@@]4(CCN(c5cccc(C(=O)O)n5)C4)C3)nc12 (stereo partly drawn) [Compound 426],***** (>2.5° C.=*****)
9,"Cc1cc(N2CC[C@](C)(c3ccccc3)C2)cc2oc(C(=O)N3CC4CN(c5cccc(C(=O)O)n5)CC4C3)nc12 (stereo partly drawn) [Compound 40, 6-(5-(4-methyl-6-((R)-3-methyl-3-phenylpyrrolidin-1-yl)benzo[d]oxazole-2-carbonyl)hexahydropyrrolo[3,4-c]pyrrol-2(1H)-yl)picolinic acid]",***** (>2.5° C.=*****)
10,Cc1cc(N2CC[C@](C)(c3ccccc3)C2)cn2nc(C(=O)N3CC4C3CCCN4c3cccc(C(=O)O)n3)nc12 (stereo partly drawn) [Compound 247],***** (>2.5° C.=*****)
11,Cc1cc(N2CC[C@](C)(c3ccccc3)C2)cn2nc(C(=O)NC3CCOC3)nc12 (stereo partly drawn) [Compound 118],***** (>2.5° C.=*****)
12,Cc1cc(N2CC[C@](C)(c3cccc(Cl)c3)C2)cn2nc(C(=O)N3C[C@@H]4CN(c5cccc(C(=O)O)n5)C[C@@H]4C3)nc12 [Compound 418],***** (>2.5° C.=*****)
13,"Cc1cc(N2CC[C@](c3ccccc3)(C(F)F)C2)cn2nc(C(=O)NCC(C)(C)O)nc12 [Compound 28, 6-[(3R)-3-(difluoromethyl)-3-phenyl-pyrrolidin-1-yl]-N-(2-hydroxy-2-methyl-propyl)-8-methyl-[1,2,4]triazolo[1,5-a]pyridine-2-carboxamide]",**** (>1.5-2.5° C.=****)
14,"Cc1cc(N2CC3(CC[C@H]3c3ccccc3)C2)cn2nc(C(=O)N3CC[C@@]4(CCN(c5cccc(C(=O)O)n5)C4)C3)nc12 [Compound 24A, Lithium 6-((R)-7-(8-methyl-6-((S)-5-phenyl-2-azaspiro[3.3]heptan-2-yl)-[1,2,4]triazolo[1,5-a]pyridine-2-carbonyl)-2,7-diazaspiro[4.4]nonan-2-yl)picolinate]",***** (>2.5° C.=*****)
15,Cc1cc(N2CC[C@](C)(c3ccccc3)C2)cn2nc(C(=O)N3CCN(S(C)(=O)=O)CC3)nc12 [Compound 144],***** (>2.5° C.=*****)
16,Cc1n[nH]c(C2C3COC2(c2nc4c(C)cc(OC[C@H](C)c5ccccc5)cn4n2)C3)n1 (stereo partly drawn) [Compound 436],***** (>2.5° C.=*****)
17,Cc1cc(N2CC[C@](C)(c3ccccc3)C2)cn2nc(C(=O)NC3COC4(CCOC4)C3)nc12 (stereo partly drawn) [Compound 145],***** (>2.5° C.=*****)
18,COc1cccc([C@@]2(C)CCN(c3cc(C)c4nc(C(=O)N5CC[C@@]6(CCN(c7cccc(C(=O)O)n7)C6)C5)nn4c3)C2)c1 [Compound 409],***** (>2.5° C.=*****)
19,Cc1cc(N2CC[C@](C)(c3ccccc3)C2)cn2nc(C(=O)N3CC4(CCN4C(=O)c4cccc(C(=O)O)n4)C3)nc12 [Compound 215],***** (>2.5° C.=*****)
20,Cc1cc(N2CC[C@](C)(c3ccccc3)C2)cn2nc(C(=O)NC3CC4(C3)CN(C3CC(C)(C(=O)O)C3)C4)nc12 (stereo partly drawn) [Compound 371],***** (>2.5° C.=*****)
21,Cc1cc(N2CC[C@](C)(c3ccccc3)C2)cn2nc(C34CCC(NC(=O)CC(C)(C)O)(C3)O4)nc12 (stereo partly drawn) [Compound 53],***** (>2.5° C.=*****)
22,Cc1cc(N2CC[C@](C)(c3ccccc3)C2)cn2nc(C(=O)NC3CN(c4cccc(C(=O)O)n4)C3)nc12 [Compound 217],***** (>2.5° C.=*****)
23,"C[C@]1(c2ccccc2)CCN(c2cc(N)c3cc(C(=O)N4CC[C@@]5(CCN(c6cccc(C(=O)O)n6)C5)C4)nn3c2)C1 [Compound 22, 6-((R)-7-(4-amino-6-((R)-3-methyl-3-phenylpyrrolidin-1-yl)pyrazolo[1,5-a]pyridine-2-carbonyl)-2,7-diazaspiro[4.4]nonan-2-yl)picolinic acid]",**** (>1.5-2.5° C.=****)
24,Cc1cc(N2CC[C@](C)(c3ccccc3)C2)cn2nc(C(=O)NC34CCC(CO)(C3)C4)nc12 [Compound 204],***** (>2.5° C.=*****)
25,CC(C)(O)c1cc(N2CC[C@](C)(c3ccccc3)C2)cn2nc(C(=O)NC3CCN(c4cccc(C(=O)O)n4)CC3)nc12 [Compound 340],***** (>2.5° C.=*****)
26,Cc1cc(N2CC[C@](C)(c3ccccc3)C2)cn2nc(C(=O)NC3CCN(c4ccc(C(=O)O)nc4)C3)nc12 (stereo partly drawn) [Compound 271],***** (>2.5° C.=*****)
27,Cc1cc(N2CC3(CC(NC(=O)c4nc5c(C)cc(N6CC[C@](C)(c7ccccc7)C6)cn5n4)C3)C2)cc(C(=O)O)n1 [Compound 272],***** (>2.5° C.=*****)

# Same assay, conditions: Table B; temperature shift [Tm]compound-[Tm]vehicle; recombinant WIL-FL T46L
row,SMILES,DSF
1,"Cc1cc(N2CC[C@](C)(c3ccccc3)C2)cn2nc(C(=O)N3CC4CCC3C(=O)N4c3cccc(C(=O)O)n3)nc12 (stereo partly drawn) [Compound 695, 6-[5-[8-methyl-6-[(3R)-3-methyl-3-phenyl-pyrrolidin-1-yl]-[1,2,4]triazolo[1,5-a]pyridine-2-carbonyl]-3-oxo-2,5-diazabicyclo[2.2.2]octan-2-yl]pyridine-2-carboxylic acid]",***** (>2.5° C.=*****)
2,Cc1cc(N2CC[C@](C)(c3ccccc3)C2)cn2nc(C(=O)N3CCC4(CCN(c5ccc(C(N)=O)c(C(=O)O)n5)C4)C3)nc12 (stereo partly drawn) [Compound 610],***** (>2.5° C.=*****)
3,CO[C@H]1CN(c2cccc(C(=O)O)n2)CC1NC(=O)c1nc2c(C)cc(N3CC[C@](C)(c4ccccc4)C3)cn2n1 (stereo partly drawn) [Compound 666],***** (>2.5° C.=*****)
4,"Cc1cc(N2CC[C@](C)(c3ccccc3)C2)cn2nc(C(=O)NC3CC4(C3)CN(c3ccnc(C(=O)O)c3)C4)nc12 [Compound 691, (R)-4-(6-(8-methyl-6-(3-methyl-3-phenylpyrrolidin-1-yl)-[1,2,4]triazolo[1,5-a]pyridine-2-carboxamido)-2-azaspiro[3.3]heptan-2-yl)picolinic acid]",***** (>2.5° C.=*****)
5,Cc1cc(N2CC[C@](C)(c3ccccc3)C2)cn2nc(C(=O)NC3CC4CCC3N4c3cccc(C(=O)O)n3)nc12 (stereo partly drawn) [Compound 668],***** (>2.5° C.=*****)
6,Cc1cc(N2CC[C@](C)(c3ccccc3)C2)cn2nc(C34CC(NC(=O)C5(C(=O)O)CCC5)(CO3)C4)nc12 [Compound 467],***** (>2.5° C.=*****)
7,Cc1cc(N2CC[C@](C)(c3ccccc3)C2)cn2nc(C34CC(CO3)C4c3nc(NC(=O)N4CC(C(=O)O)C4)n[nH]3)nc12 (stereo partly drawn) [Compound 554],***** (>2.5° C.=*****)
8,"Cc1cc(N2CC[C@](C)(c3ccccc3)C2)cn2nc(C34CC(CO)(CO3)C4c3nnn(C)n3)nc12 (stereo partly drawn) [Compound 570, (5-(2-methyl-2 h-tetrazol-5-yl)-1-(8-methyl-6-((r)-3-methyl-3-phenylpyrrolidin-1-yl)-[1,2,4]triazolo[1,5-a]pyridin-2-yl)-2-oxabicyclo[2.1.1]hexan-4-yl)methanol]",***** (>2.5° C.=*****)
9,"Cc1cc(N2CC[C@](C)(c3ccccc3)C2)cn2nc(C(=O)N3CCC4(CCCN4c4cccc(C(=O)O)n4)C3)nc12 (stereo partly drawn) [Compound 675, 6-(7-(8-methyl-6-((R)-3-methyl-3-phenylpyrrolidin-1-yl)-[1,2,4]triazolo[1,5-a]pyridine-2-carbonyl)-1,7-diazaspiro[4.4]nonan-1-yl)picolinic acid]",***** (>2.5° C.=*****)
10,Cc1cc(N2CC[C@](C)(c3ccccc3)C2)cn2nc(C34CC(CO)(CO3)C4c3nc(NS(=O)(=O)CC(C)(C)C(=O)O)n[nH]3)nc12 (stereo partly drawn) [Compound 574],***** (>2.5° C.=*****)
11,"Cc1cc(N2CC[C@](C)(c3ccccc3)C2)cn2nc(C(=O)NC3C4CC3N(c3cccc(C(=O)O)n3)C4)nc12 (stereo partly drawn) [Compound 697, 6-[5-[[8-methyl-6-[(3R)-3-methyl-3-phenyl-pyrrolidin-1-yl]-[1,2,4]triazolo[1,5-a]pyridine-2-carbonyl]amino]-2-azabicyclo[2.1.1]hexan-2-yl]pyridine-2-carboxylic acid]",***** (>2.5° C.=*****)
12,Cc1cc(N2CC[C@](C)(c3ccccc3)C2)cn2nc(C34CC(CO3)C4c3nc(NC(=O)C4CC(C(=O)O)C4)n[nH]3)nc12 (stereo partly drawn) [Compound 550],***** (>2.5° C.=*****)
13,COC(C)(CS(=O)(=O)NCC12COC(c3nc4c(C)cc(N5CC[C@](C)(c6ccccc6)C5)cn4n3)(C1)C2c1n[nH]c(C)n1)C(=O)O (stereo partly drawn) [Compound 585],***** (>2.5° C.=*****)
14,Cc1cc(N2CC[C@](C)(c3ccccc3)C2)cn2nc(C34CC(CO3)C4c3nc(NC(=O)c4cccc(C(=O)O)n4)n[nH]3)nc12 (stereo partly drawn) [Compound 549],***** (>2.5° C.=*****)
15,"Cc1cc(N2CC[C@](C)(c3ccccc3)C2)cn2nc(C(=O)N3CC[C@@]4(CCN(C(=O)CC(C)(O)C(=O)O)C4)C3)nc12 (stereo partly drawn) [Compound 731, 2-hydroxy-2-methyl-4-[(5R)-2-[8-methyl-6-[(3R)-3-methyl-3-phenyl-pyrrolidin-1-yl]-[1,2,4]triazolo[1,5-a]pyridine-2-carbonyl]-2,7-diazaspiro[4.4]nonan-7-yl]-4-oxo-butanoic acid]",***** (>2.5° C.=*****)
